According to patent publication US20200147058A1, “KRAS INHIBITOR FOR USE IN TREATING CANCER” (Friedrich-Alexander-Universitat Erlangen-Numberg, priority 2016, published 2020):

How the values were obtained:
Type in all cases: cell-based, human
Mel Im cells [1] = assay: FACS analysis of apoptosis (Annexin / propidium iodide)
Excerpt: (§1) FIGS. 4A through 4H depict that small Molecule KRAS Inhibition Reduces Proliferation and Induces Apoptosis in Melanoma. FIGS. 4A and 4B show proliferation (slope of cell index) of Mel Juso (FIG. 4A) and Mel Im (FIG. 4B) cells treated with DMSO and different concentrations of the KRAS small molecule inhibitor Deltarasin (DR). The cell index as dimensionless parameter for cell proliferative ability was used to determine the half maximal inhibitory concentration (IC50, small graphs) of DR. […] FIG. 4D illustrates exemplary images of different melanoma cell lines (Mel Im, Mel Juso and Mel Ei) treated with 5 μM DR or 5 μM DMSO, respectively, for 24 hours. FIGS. 4E and 4F show images of fibroblast cell lines derived from two different donors (F1, F2) and melanocytes (NHEM) treated DR (20 μM, 48 hours) or DMSO (FIG. 4E), and lactate dehydrogenase (LDH) quantification (FIG. 4F) in cell supernatants (optic density, OD) of NHEM after treatment with low dose DMSO, DR (5 μM), and DR (10 μM), respectively.
(§2) FIGS. 5A through 5D show time-dependent measurement of colony diameters (exemplary data in top panels) in three-dimensional, anchorage-independent “colony-forming” assays (FIGS. 5A and 5B: Mel Im, FIGS. 5C and 5D: Mel Juso). Exemplary Images (middle) and corresponding quantification of colony diameters (bottom panels, summarized data of n=3 experiments at day 19 after seeding) are also depicted. Treatments were performed in four different groups (10 μM DMSO, 5 μM Deltarasin=DR, M PLX-4032=PLX (vemurafenib), or combination of 10 μM PLX+[…]). Effects on i) colony formation (FIGS. 5A and 5C, treatment at day 1) and ii) proliferation of pre-formed colonies (FIGS. 5B and 5D, treatment at day 7 and 13) were analyzed. […] FIG. 5F show images of PLX-primary resistant Mel Juso cells treated with DMSO, DR (5 μM), high dose PLX (20 μM) and a combination of 5 μM DR+10 μM PLX for 24 hours. […] Cells were treated for 5 hours with DMSO, 5 μM Deltarasin (DR), 10 μM PLX, or a combination of 10 μM PLX and 5 μM DR. According to exemplary images for Annexin and propidium iodide (PI) staining are depicted for Mel Im. (FIG. 5H) Mel Im and Mel Juso were transfected with control si-RNA (si-CTR) or with si-KRAS (si-KR). Two subgroups (blue and red) were additionally treated with 10 μM PLX (Vemurafenib) for 24 hours, with subsequent flow cytometric quantification of tumor cell apoptosis according to FIG. 5G. Exemplary images for Annexin and propidium iodide (PI) staining are depicted for Mel Im.

Mel Juso cells [2] = assay: as above
Excerpt: as §1, §2

Htz19 melanoma cells = assay: FACS analysis of apoptosis; details: PLX 24 hours, alone or combined with RNAi-mediated KRAS knockdown
Mel Im cells [3] = assay: long-term treatment, emergence of surviving tumor cells and drug resistance; details: 21 days, PLX increasing doses up to 20 μM, or 10 μM PLX + 5 μM DR
Excerpt: as §1
FIGS. 6A through 6H depict that KRASi Prevents Emergence of Resistance and KRAS Expression is Regulated Dynamically in Acquired Resistance to BRAFi. […] Asterisks indicate significant differences (p<0.05) as compared to according control (0 μM PLX). […] Densitometric values (DM) are also shown, representing relative quantifications. […]

Mel Juso cells [4] = assay: three-dimensional, anchorage-independent colony-forming assay; details: Mel Juso (BRAFi primary resistant); DR 5 μM, PLX 10 μM, alone or combined
Excerpt: FIGS. 5A through 5D show time-dependent measurement of colony diameters (exemplary data in top panels) in three-dimensional, anchorage-independent “colony-forming” assays (FIGS. 5A and 5B: Mel Im, FIGS. 5C and 5D: Mel Juso). Exemplary Images (middle) and corresponding quantification of colony diameters (bottom panels, summarized data of n=3 experiments at day 19 after seeding) are also depicted. […] Effects on i) colony formation (FIGS. 5A and 5C, treatment at day 1) and ii) proliferation of pre-formed colonies (FIGS. 5B and 5D, treatment at day 7 and 13) were analyzed. […] Cells were treated for 5 hours with DMSO, 5 μM Deltarasin (DR), 10 μM PLX, or a combination of 10 μM PLX and 5 μM DR. […] (FIG. 5H) Mel Im and Mel Juso were transfected with control si-RNA (si-CTR) or with si-KRAS (si-KR). Two subgroups (blue and red) were additionally treated with 10 μM PLX (Vemurafenib) for 24 hours, with subsequent flow cytometric quantification of tumor cell apoptosis according to FIG. 5G.

Mel Juso cells [5] = assay: ERK-activation in BRAFi primary resistant cells; details: PLX
SkMel28-wt = assay: cell proliferation (slope of cell index); details: 10 μM PLX vs DMSO
Description: (§3) FIGS. 6A through 6H depict that KRASi Prevents Emergence of Resistance and KRAS Expression is Regulated Dynamically in Acquired Resistance to BRAFi. […] Asterisks indicate significant differences (p<0.05) as compared to according control (0 μM PLX). FIGS. 6E and 6F are exemplary Western blot images (FIG. 6E) depicting immunostaining of AKT, pAKT, ERK, pERK, and KRAS. Densitometric values (DM) are also shown, representing relative quantifications. Resistant cell lines 451Lu-R and SkMel28-R were treated with 0, 5, or 10 μM PLX for 8 hours, and according summarized quantification of KRAS protein expression (n=3, FIG. 6F).

451Lu-wt = assay: cell proliferation (slope of cell index); details: 10 μM PLX vs DMSO
[6] = tested on: resistant cell clones (SkMel28-R, 451Lu-R); assay: real-time cell proliferation of BRAFi-resistant melanoma cells; details: both resistant cell clones; 10 μM PLX vs DMSO
Description: as §3
FIGS. 7A through 7I present KRAS Inhibition Re-sensitizes BRAF Inhibitor Resistant Cells for Inhibition of Proliferation and Induction of Apoptosis. […] show real-time cell proliferation (exemplary proliferation curve depicted in FIG. 6A, summarized slopes of proliferation curves depicted in FIG. 6B) of PLX-resistant cells treated with si-KRAS (KR) or control si-RNA (CTR), respectively, in combination with 5 or 10 μM PLX. FIGS. 7C and 7D show real-time cell proliferation (exemplary proliferation curve depicted in […], summarized slopes of proliferation curves depicted in FIG. 7D) of PLX-resistant cells treated with Deltarasin (DR) or DMSO, respectively, in combination with 5 or 10 μM PLX, according to FIGS. 7A and 7B. […]

[7] = tested on: KRAS mRNA in SkMel28-R and 451Lu-R cells; assay: qRT-PCR of KRAS mRNA expression after PLX treatment; details: resistant and some non-resistant melanoma cell clones; 24-hour and 48-hour PLX treatment
Description: as §3

[8] = tested on: resistant cell lines 451Lu-R and SkMel28-R; assay: Western blot of AKT, pAKT, ERK, pERK and KRAS
Description: as §3
After 48 hours of transfection with either control si-RNA (CTR) or si-KRAS (KR), cells were treated with different concentrations of PLX (0-10 μM). Data are represented as mean±SD in FIGS. 6A-6G and as mean±SEM in FIG. 6H. Ns: non-significant. *: p<0.05.

[9] = 10 μM PLX 24 hours, alone (si-CTR) or combined with RNAi-mediated KRAS knockdown
[10] = 5 hours, 5 μM DR, 10 μM PLX or combination

Q: Which results are given for `CCCS(=O)(=O)Nc1ccc(F)c(C(=O)c2c[nH]c3ncc(-c4ccc(Cl)cc4)cc23)c1F` [PLX]?
A: apoptosis (FACS) (Mel Im cells [1]; [9]): slightly enhanced apoptosis; apoptosis (FACS), short treatment (Mel Im cells [1]; [10]): insufficient to induce apoptosis; apoptosis (FACS) (Mel Juso cells [2]; [9]): did not cause apoptosis; apoptosis (FACS), short treatment (Mel Juso cells [2]; [10]): insufficient to induce apoptosis; apoptosis (FACS) (Htz19 melanoma cells): slightly enhanced apoptosis; emergence of surviving tumor cells (acquired resistance) (Mel Im cells [3]): survival of a moderate proportion of tumor cells; three-dimensional colony formation and colony proliferation (Mel Juso cells [4]): enhanced; ERK-activation (Mel Juso cells [5]): enhanced; cell proliferation (SkMel28-wt): inhibited proliferation; cell proliferation (451Lu-wt): inhibited proliferation; cell proliferation [6]: enhanced; KRAS mRNA expression (qRT-PCR) [7]: dose-dependent slight dynamic alteration; ERK activation (pERK) ([8]; PLX 0, 5 or 10 μM): increased ERK activation; activation of AKT (pAKT/AKT) ([8]; PLX doses): dose-dependently increased; KRAS protein expression (Western blot) ([8]; eight hours, 0, 5 or 10 μM PLX): dose-dependently enhanced
